Data as given in patent US8377983B2, “Benzazole derivatives, compositions, and methods of use as aurora kinase inhibitors” (TransTech Pharma, Inc., priority 2006, dated 2013).

What was measured:
[1] = tested on: BT-474 breast xenograft; test: BT-474 xenograft model, Example 88 alone and in combination with trastuzumab; assay type: in vivo, athymic SCID mice; details: for Median Tumor Size: Example 88 30 mg/kg i.p. b.i.d. 3 days on, 2 days off, 5 cycles, trastuzumab 10 mg/kg i.p. twice weekly 4 weeks
Text: Mice-bearing sc tumors were randomized, and treatment groups consisted of 10 mice.

[2] = tested on: human MiaPaCa-2 pancreatic xenografts; test: MiaPaCa-2 xenograft model, Example 88 alone and in combination with erlotinib; assay type: in vivo, athymic mice; details: for Median Tumor Size: Example 88 10 mg/kg i.p. b.i.d. 10 days, erlotinib 50 mg/kg p.o. daily 14 days
Experimental: (§1) Compounds were dosed on the following schedules:
2) Erlotinib was dosed 50 mg/kg, p.o., daily for 14 days (days 1-14).
Mice-bearing sc tumors were randomized, and treatment groups consisted of 8 mice.

[3] = tested on: human MiaPaCa-2 pancreatic xenografts; test: MiaPaCa-2 xenograft model, Example 88 alone and in combination with gemcitabine; assay type: in vivo, athymic mice; details: for Median Tumor Size: Example 88 10 mg/kg i.p. b.i.d. 10 days, gemcitabine 120 mg/kg i.p. q3d×4
Experimental: as §1
2) Gemcitabine was dosed 120 mg/kg, i.p., q3d×4 (days 1, 4, 7, 10).
Drug treatment started when mean tumor sizes reached approximately 120 mg (day 8). Mice-bearing sc tumors were randomized, and treatment groups consisted of 8 mice. The median tumor size for each group at various points in the study are listed below in Table B.

[4] = tested on: human tumor xenografts derived from pancreas and breast tissues; test: Single agent antitumor activity in established human tumor xenografts; assay type: in vivo; details: established human tumor xenografts in athymic mice
Text: While the compounds of the present invention may be used as a single agent, they may also be used as part of a combination therapy.

[5] = day 24, out of 10 mice, Table CC head: Example 88 10 mg/kg, Trastuzumab 10 mg/kg
[6] = day 8 of study (treatment start)
[7] = previous dose response studies in this model, 10 mg/kg
[8] = day 42, out of 8 mice, Example 88 10 mg/kg, gemcitabine 120 mg/kg

Which “Median Tumor Size” value ([1]; day 4 of study) does the source give for O=C(Nc1ccc2cn[nH]c2c1)c1cc2nc(Nc3ccccc3C(F)(F)F)[nH]c2cc1N1CCNCC1 [Example 88, 6-Piperazin-1-yl-2-(2-trifluoromethylphenylamino)-1H-benzimidazole-5-carboxylic acid (1H-indazol-6-yl)-amide] here?
The value was 120 mg.

What about the “Median Tumor Size” value ([1]; day 7 of study) of the same molecule?
Its value is 152 mg.

What about the “Median Tumor Size” value ([1]; day 10 of study) of the same molecule?
The value was 153 mg.

And the “Median Tumor Size” value ([1]; day 14 of study)?
Its value is 179 mg.

And the “Median Tumor Size” value ([1]; day 17 of study)?
The value was 149 mg.

And the “Median Tumor Size” value ([1]; day 21 of study)?
Its value is 142 mg.

And the “complete responders (CR)” value [1, 5]?
Its value is 0/10.

And the “partial responders (PR)” value [1, 5]?
The value was 0/10.

What about the “Median Tumor Size” value ([1]; day 24 of study) of the same molecule?
Its value is 138 mg.

What about the “Median Tumor Size” value ([1]; day 28 of study) of the same molecule?
Its value is 104 mg.

What about the “Median Tumor Size” value [2, 6] of the same molecule?
The value was 120 mg.

And the “Median Tumor Size” value ([2]; day 10 of study)?
The value was 162 mg.

And the “Median Tumor Size” value ([2]; day 13 of study)?
The value was 170 mg.

And the “Median Tumor Size” value ([2]; day 16 of study)?
Its value is 170 mg.

And the “Median Tumor Size” value ([2]; day 20 of study)?
Its value is 221 mg.

What about the “Median Tumor Size” value ([2]; day 23 of study) of the same molecule?
The value was 209 mg.

What about the “Median Tumor Size” value ([2]; day 27 of study) of the same molecule?
Its value is 368 mg.

And the “Median Tumor Size” value ([2]; day 30 of study)?
The value was 486 mg.

What about the “Median Tumor Size” value ([2]; day 34 of study) of the same molecule?
Its value is 817 mg.

And the “Median Tumor Size” value ([2]; day 37 of study)?
Its value is 1055 mg.

And the “Median Tumor Size” value ([2]; day 42 of study)?
Its value is 1629 mg.

And the “effectiveness of dose for inhibition of tumor growth” value [2, 7]?
The value was “moderately effective dose”.

What about the “Median Tumor Size” value [3, 6] of the same molecule?
Its value is 120 mg.

And the “Median Tumor Size” value ([3]; day 10 of study)?
Its value is 162 mg.

What about the “Median Tumor Size” value ([3]; day 13 of study) of the same molecule?
The value was 170 mg.

And the “Median Tumor Size” value ([3]; day 16 of study)?
The value was 170 mg.

And the “Median Tumor Size” value ([3]; day 20 of study)?
The value was 221 mg.

What about the “Median Tumor Size” value ([3]; day 23 of study) of the same molecule?
The value was 209 mg.

And the “Median Tumor Size” value ([3]; day 27 of study)?
Its value is 368 mg.

And the “Median Tumor Size” value ([3]; day 30 of study)?
The value was 486 mg.

What about the “Median Tumor Size” value ([3]; day 34 of study) of the same molecule?
Its value is 817 mg.

And the “Median Tumor Size” value ([3]; day 37 of study)?
Its value is 1055 mg.

And the “complete responders (CR, 100% reduction in tumor size)” value [3, 8]?
The value was 0/8.

And the “partial responders (PR, greater than 50% reduction in tumor size)” value [3, 8]?
Its value is 0/8.

And the “Median Tumor Size” value ([3]; day 42 of study)?
Its value is 1629 mg.

And the “effectiveness of dose for inhibition of tumor growth” value [3, 7]?
The value was “moderately effective dose”.

What about the “antitumor activity as a single agent” value [4] of the same molecule?
The value was “demonstrated antitumor activity”.
